Reference: ChEMBL document CHEMBL6153170 (J Med Chem, 2025)
pIC50: −log10 of the molar value. Active and inactive are the calls of the source. The calls are words filed in the database; no cut-off is given here.

What was measured:
HepG2 = assay: cells; conditions: Homo sapiens, HepG2, 48 h
[1] = molecular target: Histone deacetylase 3 (Homo sapiens) (UniProt O15379); assay: Inhibition of HDAC3 in human Jurkat T cells assessed as increase in acetylated H3 level incubated for 12 hrs by Western blot analysis; assay type: cell-based
Chain of Histone deacetylase 3 (Homo sapiens) (O15379 whole entry): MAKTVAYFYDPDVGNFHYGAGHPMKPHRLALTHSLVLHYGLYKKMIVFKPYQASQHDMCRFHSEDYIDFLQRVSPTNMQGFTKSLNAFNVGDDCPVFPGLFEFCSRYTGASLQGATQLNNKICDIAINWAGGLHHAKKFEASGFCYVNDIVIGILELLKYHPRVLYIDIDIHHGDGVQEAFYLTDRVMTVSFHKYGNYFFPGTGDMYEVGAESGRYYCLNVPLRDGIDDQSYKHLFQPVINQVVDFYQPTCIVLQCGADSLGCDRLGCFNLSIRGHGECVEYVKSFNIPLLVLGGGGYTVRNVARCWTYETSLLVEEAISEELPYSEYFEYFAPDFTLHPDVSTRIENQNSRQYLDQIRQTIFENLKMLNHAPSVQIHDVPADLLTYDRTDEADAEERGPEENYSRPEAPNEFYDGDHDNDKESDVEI

Jurkat = assay: Cytotoxicity against human Jurkat T cells assessed as reduction in cell viability at 3.3 to 10 uM incubated for 48 hrs; assay type: functional, cell-based; conditions: dose 3.3-10 µM
[2] = molecular target: T1, Histone deacetylase 3 (Mus musculus) (UniProt O88895); assay: Inhibition of HDAC3 in mouse B16-F10 cells assessed as increase in acetylated H3 level incubated for 12 hrs by Western blot analysis; assay type: cell-based
T1 sequence (whole entry): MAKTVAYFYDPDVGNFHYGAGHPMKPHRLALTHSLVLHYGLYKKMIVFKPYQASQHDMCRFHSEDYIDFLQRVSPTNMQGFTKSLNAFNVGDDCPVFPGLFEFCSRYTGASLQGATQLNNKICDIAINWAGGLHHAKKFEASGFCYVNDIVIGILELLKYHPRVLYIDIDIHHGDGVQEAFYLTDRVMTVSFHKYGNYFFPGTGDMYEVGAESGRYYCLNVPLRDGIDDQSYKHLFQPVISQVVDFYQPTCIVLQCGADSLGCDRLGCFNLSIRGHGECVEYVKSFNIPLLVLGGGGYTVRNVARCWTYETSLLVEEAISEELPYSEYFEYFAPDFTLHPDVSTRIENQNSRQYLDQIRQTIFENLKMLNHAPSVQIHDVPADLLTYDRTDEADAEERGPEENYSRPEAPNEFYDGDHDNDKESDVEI

[3] = molecular target: T2, Histone deacetylase 8 (Homo sapiens) (UniProt Q9BY41); assay: Inhibition of HDAC8 in human Jurkat T cells assessed as increase in acetylated SMC3 level incubated for 12 hrs by Western blot analysis; assay type: cell-based
T2 sequence (whole entry): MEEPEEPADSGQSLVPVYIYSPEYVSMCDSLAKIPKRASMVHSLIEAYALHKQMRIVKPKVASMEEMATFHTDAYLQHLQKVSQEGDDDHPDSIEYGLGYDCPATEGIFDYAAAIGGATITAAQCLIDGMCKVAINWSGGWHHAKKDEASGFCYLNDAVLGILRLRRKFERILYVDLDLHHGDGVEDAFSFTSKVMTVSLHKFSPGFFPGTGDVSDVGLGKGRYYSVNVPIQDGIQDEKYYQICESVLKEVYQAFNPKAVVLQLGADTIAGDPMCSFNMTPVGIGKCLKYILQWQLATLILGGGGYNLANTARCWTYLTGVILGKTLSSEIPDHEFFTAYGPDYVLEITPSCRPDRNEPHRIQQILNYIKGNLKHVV

[4] = Oral bioavailability in male Sprague-Dawley rat at 10 mg/kg measured after 48 hrs by triple quadrupole mass spectrometric analysis; assay type: ADME, organism-based; conditions: in vivo
[5] = MRT (0 to t) in male Sprague-Dawley rat at 10 mg/kg, po measured after 48 hrs by triple quadrupole mass spectrometric analysis; assay type: ADME, organism-based; conditions: in vivo
[6] = Toxicity in C57 mouse assessed as change in GLO level at 20 mg/kg/day, IG administered for 14 days by heat map analysis; assay type: organism-based; conditions: in vivo, po, 336 h, time 14 day
Histone deacetylase 7 = molecular target: T3, Histone deacetylase 7 (Homo sapiens, UniProt Q8WUI4); assay: Inhibition of N-terminal GST-tagged recombinant human HDAC7 (501 to 952 residues) extracted from baculovirus expression system using Ac-Leu-Gly-Lys (Tfa)-AMC as substrate preincubated for 5 mins followed by substrate addition and measured after 30 mins by fluorescence microplate reader analysis
T3 sequence (Q8WUI4 whole entry): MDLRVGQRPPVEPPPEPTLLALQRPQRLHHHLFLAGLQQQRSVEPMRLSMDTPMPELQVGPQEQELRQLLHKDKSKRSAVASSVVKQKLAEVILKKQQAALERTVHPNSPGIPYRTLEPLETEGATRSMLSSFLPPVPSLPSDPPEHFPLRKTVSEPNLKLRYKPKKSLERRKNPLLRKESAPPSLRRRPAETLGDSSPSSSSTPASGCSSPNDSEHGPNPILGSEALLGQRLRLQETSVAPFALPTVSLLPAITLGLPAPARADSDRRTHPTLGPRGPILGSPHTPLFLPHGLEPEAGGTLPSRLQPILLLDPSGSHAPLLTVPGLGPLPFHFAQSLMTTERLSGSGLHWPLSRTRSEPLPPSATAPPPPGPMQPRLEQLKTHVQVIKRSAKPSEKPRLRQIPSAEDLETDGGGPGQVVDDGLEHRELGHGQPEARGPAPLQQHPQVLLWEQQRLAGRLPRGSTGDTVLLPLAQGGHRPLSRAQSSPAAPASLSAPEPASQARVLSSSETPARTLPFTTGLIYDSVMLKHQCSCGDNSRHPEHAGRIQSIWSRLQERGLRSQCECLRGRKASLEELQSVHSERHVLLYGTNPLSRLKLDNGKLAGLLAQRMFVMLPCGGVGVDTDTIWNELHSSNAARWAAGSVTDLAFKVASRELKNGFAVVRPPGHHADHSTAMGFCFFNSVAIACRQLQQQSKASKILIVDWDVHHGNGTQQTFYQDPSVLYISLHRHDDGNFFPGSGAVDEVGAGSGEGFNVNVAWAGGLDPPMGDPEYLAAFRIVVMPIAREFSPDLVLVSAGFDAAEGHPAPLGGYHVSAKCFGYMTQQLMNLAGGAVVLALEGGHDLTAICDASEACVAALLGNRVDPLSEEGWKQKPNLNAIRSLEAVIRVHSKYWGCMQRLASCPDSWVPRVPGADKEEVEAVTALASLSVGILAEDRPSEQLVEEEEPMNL

B16-F10 = assay: Antitumor activity against mouse B16-F10 cells implanted in C57BL/6 mouse model assessed as tumor growth inhibition at 20 mg/kg/day, ip administered for 14 days relative to control; assay type: functional; conditions: B16-F10, 336 h, time 14 day, read-out: TGI
[7] = Apparent clearance during terminal phase in male Sprague-Dawley rat at 10 mg/kg, po measured after 48 hrs by triple quadrupole mass spectrometric analysis; assay type: ADME, organism-based; conditions: in vivo
[8] = MRT (0 to infinity) in male Sprague-Dawley rat at 2 mg/kg, iv measured after 48 hrs by triple quadrupole mass spectrometric analysis; assay type: ADME, organism-based; conditions: in vivo
[9] = In vivo inhibition of PD-L1 in C57BL/6 mouse model implanted with mouse B16-F10 cells assessed as reduction in PD-L1 protein expression in tumor at 20 mg/kg/day, ip administered for 14 days by Western blot analysis relative to control; assay type: functional; conditions: C57BL/6, B16-F10, 336 h, time 14 day
[10] = Toxicity in C57 mouse assessed as change in ALT level at 20 mg/kg/day, IG administered for 14 days by heat map analysis; assay type: organism-based; conditions: in vivo, po, 336 h, time 14 day
[11] = Tmax in male Sprague-Dawley rat at 2 mg/kg, iv measured after 48 hrs by triple quadrupole mass spectrometric analysis; assay type: ADME, organism-based; conditions: in vivo
[12] = Toxicity in C57 mouse assessed as change in AST level at 20 mg/kg/day, IG administered for 14 days by heat map analysis; assay type: organism-based; conditions: in vivo, po, 336 h, time 14 day
MCF7 = assay: cells; conditions: Homo sapiens, MCF7, 48 h

COc1nc(-c2cccc(-c3ccccc3)c2C)ccc1CNCCCCCCC(=O)NO
pIC50 (HepG2): 5.02 | inhibition [1]: inactive | Activity (Jurkat): Active; Mild Cytotoxicity Observed | inhibition [2]: inactive | inhibition [3]: inactive | bioavailability [4]: 15.3% | MRT last at 48 h [5]: 15.3 h | Activity [6]: Non-toxic | pIC50 (Histone deacetylase 7): < 4.00 | inhibition in vivo at 20 mg/kg/day (B16-F10): 65.5% | CLz/F [7]: 25 mL/min/kg | MRT inf [8]: 7.12 h | inhibition in vivo at 20 mg/kg/day [9]: ~68% | Activity [10]: Non-toxic | Tmax [11]: 4.8 min | Activity [12]: Non-toxic | pIC50 (MCF7): < 5.00
